How the values were obtained:
[1] = Selectivity index, ratio of CC50 for African green monkey Vero cells to IC50 for chloroquine-sensitive Plasmodium falciparum 3D7 infected in human erythrocytes; type: toxicity, cell-based; settings: read-out: Ratio CC50/IC50
[2] = Cytotoxicity against African green monkey Vero cells after 3 days by resazurin dye based fluorescence assay; type: cell-based; settings: chlorocebus sabaeus
[3] = Selectivity index, ratio of CC50 for African green monkey Vero cells to IC50 for chloroquine-resistant Plasmodium falciparum K1 infected in human erythrocytes; type: toxicity, cell-based; settings: read-out: Ratio CC50/IC50
Plasmodium falciparum [4] = assay: Antiplasmodial activity against chloroquine-resistant Plasmodium falciparum K1 infected in human erythrocytes after 72 hrs by SYBR Green 1 staining based fluorescence assay; type: functional, organism-based; settings: K1, 72 h
Plasmodium falciparum [5] = assay: Antiplasmodial activity against chloroquine-sensitive Plasmodium falciparum 3D7 infected in human erythrocytes after 72 hrs by SYBR Green 1 staining based fluorescence assay; type: functional, organism-based; settings: 3D7, 72 h

| SMILES | selectivity ratio [1] | CC50 at 72 h [2] | selectivity ratio [3] | IC50 (Plasmodium falciparum [4]) | IC50 (Plasmodium falciparum [5]) |
| --- | --- | --- | --- | --- | --- |
| COc1ccc(N/N=C2\C(=O)N(Cc3cn(O[C@@H]4O[C@H](CO)[C@H](O)[C@H](O)[C@H]4O)nn3)c3ccccc32)cc1 | 22 | 76.2 µM | 14.7 | 5.2 µM | 3.46 µM |
| O=C1/C(=N\Nc2cccc(Cl)c2)c2ccccc2N1Cc1cn(O[C@@H]2O[C@H](CO)[C@H](O)[C@H](O)[C@H]2O)nn1 | 12.5 | 84.5 µM | 32.2 | 2.62 µM | 6.74 µM |
| N#Cc1ccc(N/N=C2\C(=O)N(Cc3cn(O[C@@H]4O[C@H](CO)[C@H](O)[C@H](O)[C@H]4O)nn3)c3ccccc32)cc1 | 12.2 | 93.7 µM | 28.4 | 3.3 µM | 7.65 µM |
| O=C1/C(=N\Nc2ccc(F)cc2)c2ccccc2N1Cc1cn(O[C@@H]2O[C@H](CO)[C@H](O)[C@H](O)[C@H]2O)nn1 | 13.9 | 92.1 µM | 28.5 | 3.23 µM | 6.64 µM |
